Reference: PubChem BioAssay (NCI)
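Interpolation was linear, between the two tested concentrations surrounding the appropriate level; five concentrations were tested over 48 hours in 96-well plates. GI50 is the concentration that inhibits growth by half. At the TGI there is no net growth.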

Legend:
Experiment in all cases: NCI-60 cell line screen, 48 h
786-0 renal = test system: 786-0 renal
A498 renal = test system: A498 renal
A549 NSCLC = test system: A549 NSCLC
ACHN renal = test system: ACHN renal
BT-549 breast = test system: BT-549 breast
CAKI-1 renal = test system: CAKI-1 renal
CCRF-CEM leukemia = test system: CCRF-CEM leukemia
COLO 205 colon = test system: COLO 205 colon
DU-145 prostate = test system: DU-145 prostate
HCC-2998 colon = test system: HCC-2998 colon
HCT-116 colon = test system: HCT-116 colon
HCT-15 colon = test system: HCT-15 colon
HL-60(TB) leukemia = test system: HL-60(TB) leukemia
HOP-62 NSCLC = test system: HOP-62 NSCLC
HOP-92 NSCLC = test system: HOP-92 NSCLC
HS 578T breast = test system: HS 578T breast
HT29 colon = test system: HT29 colon
IGROV1 ovarian = test system: IGROV1 ovarian
K-562 leukemia = test system: K-562 leukemia
KM12 colon = test system: KM12 colon
LOX IMVI melanoma = test system: LOX IMVI melanoma
M14 melanoma = test system: M14 melanoma
MCF7 breast = test system: MCF7 breast
MDA-MB-231 breast = test system: MDA-MB-231 breast
MDA-MB-435 = test system: MDA-MB-435
MOLT-4 leukemia = test system: MOLT-4 leukemia
NCI-H226 lung = test system: NCI-H226 lung
NCI-H23 lung = test system: NCI-H23 lung
NCI-H460 lung = test system: NCI-H460 lung
NCI-H522 lung = test system: NCI-H522 lung
NCI/ADR-RES ovarian = test system: NCI/ADR-RES ovarian
OVCAR-3 ovarian = test system: OVCAR-3 ovarian
OVCAR-4 ovarian = test system: OVCAR-4 ovarian
OVCAR-5 ovarian = test system: OVCAR-5 ovarian
OVCAR-8 ovarian = test system: OVCAR-8 ovarian
PC-3 prostate = test system: PC-3 prostate
RPMI-8226 leukemia = test system: RPMI-8226 leukemia
RXF 393 renal = test system: RXF 393 renal
SF-268 CNS = test system: SF-268 CNS
SF-295 CNS = test system: SF-295 CNS
SF-539 CNS = test system: SF-539 CNS
SK-MEL-2 melanoma = test system: SK-MEL-2 melanoma
SK-MEL-28 melanoma = test system: SK-MEL-28 melanoma
SK-MEL-5 melanoma = test system: SK-MEL-5 melanoma
SK-OV-3 ovarian = test system: SK-OV-3 ovarian
SN12C renal = test system: SN12C renal
SNB-19 CNS = test system: SNB-19 CNS
SNB-75 CNS = test system: SNB-75 CNS
SR leukemia = test system: SR leukemia
SW-620 colon = test system: SW-620 colon
T-47D breast = test system: T-47D breast
TK-10 renal = test system: TK-10 renal
U251 CNS = test system: U251 CNS
UACC-257 melanoma = test system: UACC-257 melanoma
UACC-62 melanoma = test system: UACC-62 melanoma
UO-31 renal = test system: UO-31 renal

In the case of `Cn1ccc(S(=O)(=O)N2CCC[C@H](Nc3nccc(-c4c(-c5cccc(O)c5)nc5occn45)n3)C2)n1`, the GI50 (786-0 renal) is reported as 20.1 µM, the TGI (786-0 renal) is reported as over 100 µM and the GI50 (A498 renal) is reported as 6.8 µM. It also gave a TGI (A498 renal) of 26.1 µM, a GI50 (A549 NSCLC) of 13.2 µM and a TGI (A549 NSCLC) of 42.9 µM. For the same compound, the GI50 (ACHN renal) was 7.19 µM, the TGI (ACHN renal) was over 100 µM and the GI50 (BT-549 breast) was 12.7 µM. It also gave a TGI (BT-549 breast) of 52.9 µM, a GI50 (CAKI-1 renal) of 18 µM and a TGI (CAKI-1 renal) of 78.1 µM. It also gave a GI50 (CCRF-CEM leukemia) of 4.47 µM, a TGI (CCRF-CEM leukemia) of over 100 µM and a GI50 (COLO 205 colon) of 0.0913 µM. For the same compound, the TGI (COLO 205 colon) was 28.6 µM, the GI50 (DU-145 prostate) was 16.6 µM and the TGI (DU-145 prostate) was over 100 µM. For the same compound, the GI50 (HCC-2998 colon) was 15 µM, the TGI (HCC-2998 colon) was 34.3 µM and the GI50 (HCT-116 colon) was 3.93 µM. It also gave a TGI (HCT-116 colon) of 32.4 µM, a GI50 (HCT-15 colon) of 22.3 µM and a TGI (HCT-15 colon) of over 93.8 µM. It also gave a GI50 (HL-60(TB) leukemia) of 10.8 µM, a TGI (HL-60(TB) leukemia) of 32.3 µM and a GI50 (HOP-62 NSCLC) of 31 µM. It also gave a TGI (HOP-62 NSCLC) of over 100 µM, a GI50 (HOP-92 NSCLC) of 7.64 µM and a TGI (HOP-92 NSCLC) of 52.9 µM. It also gave a GI50 (HS 578T breast) of 7.57 µM, a TGI (HS 578T breast) of 93.5 µM and a GI50 (HT29 colon) of 0.732 µM. For the same compound, the TGI (HT29 colon) was 34.7 µM, the GI50 (IGROV1 ovarian) was 10.9 µM and the TGI (IGROV1 ovarian) was 51.9 µM. For the same compound, the GI50 (K-562 leukemia) was 13.9 µM, the TGI (K-562 leukemia) was over 100 µM and the GI50 (KM12 colon) was 18.3 µM. It also gave a TGI (KM12 colon) of over 86.9 µM, a GI50 (LOX IMVI melanoma) of 2.87 µM and a TGI (LOX IMVI melanoma) of 18.7 µM. The GI50 (M14 melanoma) was 0.112 µM, the TGI (M14 melanoma) was 13.9 µM and the GI50 (MCF7 breast) was 12.8 µM. It also gave a TGI (MCF7 breast) of 55.3 µM, a GI50 (MDA-MB-231 breast) of 6.23 µM and a TGI (MDA-MB-231 breast) of over 66.6 µM. For the same compound, the GI50 (MDA-MB-435) was 0.329 µM, the TGI (MDA-MB-435) was 29.3 µM and the GI50 (MOLT-4 leukemia) was 17.4 µM. For the same compound, the TGI (MOLT-4 leukemia) was 63.7 µM, the GI50 (NCI-H226 lung) was 11.5 µM and the TGI (NCI-H226 lung) was over 84.8 µM. It also gave a GI50 (NCI-H23 lung) of 12 µM, a TGI (NCI-H23 lung) of 41.8 µM and a GI50 (NCI-H460 lung) of 15.5 µM. It also gave a TGI (NCI-H460 lung) of 59.8 µM, a GI50 (NCI-H522 lung) of 13 µM and a TGI (NCI-H522 lung) of 36.4 µM. For the same compound, the GI50 (NCI/ADR-RES ovarian) was over 78.7 µM, the TGI (NCI/ADR-RES ovarian) was over 100 µM and the GI50 (OVCAR-3 ovarian) was 13.5 µM. For the same compound, the TGI (OVCAR-3 ovarian) was 51.9 µM, the GI50 (OVCAR-4 ovarian) was 14.5 µM and the TGI (OVCAR-4 ovarian) was over 85.8 µM. For the same compound, the GI50 (OVCAR-5 ovarian) was 24.9 µM, the TGI (OVCAR-5 ovarian) was over 100 µM and the GI50 (OVCAR-8 ovarian) was 18.9 µM. It also gave a TGI (OVCAR-8 ovarian) of over 100 µM, a GI50 (PC-3 prostate) of 19.4 µM and a TGI (PC-3 prostate) of over 100 µM. For the same compound, the GI50 (RPMI-8226 leukemia) was 14.9 µM, the TGI (RPMI-8226 leukemia) was 46.4 µM and the GI50 (RXF 393 renal) was 4.47 µM. It also gave a TGI (RXF 393 renal) of 18.4 µM, a GI50 (SF-268 CNS) of 21.4 µM and a TGI (SF-268 CNS) of over 100 µM. The GI50 (SF-295 CNS) was 22.3 µM, the TGI (SF-295 CNS) was 62.1 µM and the GI50 (SF-539 CNS) was 17 µM. For the same compound, the TGI (SF-539 CNS) was 59.2 µM, the GI50 (SK-MEL-2 melanoma) was 0.444 µM and the TGI (SK-MEL-2 melanoma) was 10.7 µM. It also gave a GI50 (SK-MEL-28 melanoma) of 0.0938 µM, a TGI (SK-MEL-28 melanoma) of 20.5 µM and a GI50 (SK-MEL-5 melanoma) of 3.51 µM. The TGI (SK-MEL-5 melanoma) was 18.6 µM, the GI50 (SK-OV-3 ovarian) was 5.71 µM and the TGI (SK-OV-3 ovarian) was 49.6 µM. It also gave a GI50 (SN12C renal) of 8.01 µM, a TGI (SN12C renal) of 51.7 µM and a GI50 (SNB-19 CNS) of 46.4 µM. It also gave a TGI (SNB-19 CNS) of over 100 µM, a GI50 (SNB-75 CNS) of 1.9 µM and a TGI (SNB-75 CNS) of over 89 µM. The GI50 (SR leukemia) was 8.19 µM, the TGI (SR leukemia) was 46.2 µM and the GI50 (SW-620 colon) was 15.9 µM. For the same compound, the TGI (SW-620 colon) was over 64.2 µM, the GI50 (T-47D breast) was 18.5 µM and the TGI (T-47D breast) was 70.5 µM. The GI50 (TK-10 renal) was 14.3 µM, the TGI (TK-10 renal) was 60.2 µM and the GI50 (U251 CNS) was 22.3 µM. It also gave a TGI (U251 CNS) of over 100 µM, a GI50 (UACC-257 melanoma) of 0.224 µM and a TGI (UACC-257 melanoma) of 90.7 µM. The GI50 (UACC-62 melanoma) was 0.0643 µM, the TGI (UACC-62 melanoma) was 3.4 µM and the GI50 (UO-31 renal) was 12.9 µM. It also gave a TGI (UO-31 renal) of 57.1 µM.
